Values of other authors, collected in patent publication US6638906B1, “Amphiphilic polymers and polypeptide conjugates comprising same” (Nobex Corporation, priority 1999, dated 2003).

B1: monitor peptide: peptide secreted into the intestines that controls CCK release by positive feedback regulation (protein, UniProt P09655 19-79, looked up)
Serine protease inhibitor …: GNPPAEVNGKTPNCPKQIMGCPRIYDPVCGTNGITYPSECSLCFENRKFGTSIHIQRRGTC
B2: diazepan binding inhibitor: peptide secreted into the intestines found to stimulate CCK release (protein, UniProt P07108 2-87, looked up)
Acyl-CoA-binding protein: SQAEFEKAAEEVRHLKTKPSDEEMLFIYGHYKQATVGDINTERPGMLDFTGKAKWDAWNELKGTSKEDAMKAYINKVEELKKKYGI

Key:
native CCK cells = conditions: versus vehicle/basal secretion
food intake = conditions: infused into the duodenum of rats with trypsin inhibitors
[1] = tested on: pancreatic protein output; conditions: infused into the duodenum of rats
CCK release = conditions: relative to LCRF

Molecule	increase in CCK secretion (native CCK cells)	effect on food intake (food intake)	dose-response of pancreatic protein output [1]	increase in CCK secretion (STC-1 cells)	potency for stimulating CCK release, fold less than LCRF (CCK release)
luminal cholecystokinin releasing factor [Native LCRF]	~300%	causes a reduction of food intake	biphasic dose-response of curve of pancreatic protein output is observed, with higher doses of LCRF leading to decreased pancreatic protein output	~300%	–
B1	–	–	–	–	6 fold
B2	–	–	–	–	100-1,000 fold
